Assay results taken from patent US10722586B2, “Filmogenic compositions for topical anaesthetic bioadhesives—tabs, for controlled release of active principles and topical anaesthetic bioadhesives” (UNIVERSIDADE FEDERAL DE PELOTAS, priority 2014, dated 2020).

Test system: cell line of mouse fibroblasts (NIH/3T3)
Assay: Cytotoxicity test (MTT, ISO 10993) on NIH/3T3 fibroblasts
Assay type: cell-based
Settings: absorbance at 540 nm, mean (±SD)
Description: The cytotoxicity of the products of the invention is evaluated with the cell line of mouse fibroblasts (NIH/3T3).
The test is performed according to ISO 10993 (2009). The cell suspension is plated at a concentration of 2×10^4 cells per well and delivered into a cell culture dish of 96 wells. Each well receives 200 μl DMEM (Dulbecco's Modified Eagle Medium) supplemented with 10% Fetal Bovine Serum. The plate is then incubated at 37° C. in an atmosphere containing 5% CO2 for 24 hours. In control wells, 200 μl DMEM (Dulbecco's Modified Eagle Medium) is supplemented with fetal bovine serum 10%. After removal of the test extracts, 200 μl PBS (phosphate buffered saline) and 20 μl of MTT (tetrazolium salt [3-(4,5-dimetltiazol-2-yl)-2,5-diphenyltetrazolium bromide] are added to each well. The plate is incubated in a room without light for 24 hours at 37° C. After that, MTT is aspirated and 200 μl dimethylsulfoxide (DMSO) is added to each well. Thereafter, absorbance at 540 nm is measured using a spectrophotometer and the results were analyzed statistically.
The data are tabulated and submitted to Kruskal-Wallis nonparametric statistical analysis and Tukey's complementary test (p<0.05).
The results of cytotoxicity testing are illustrated in FIG. 10.

SMILES: CCOC(=O)c1ccc(N)cc1 [Example P20, benzocaine]
- ABSORBANCE (540 nm): 0.511 (±0.032)^A
